# Assays:
# Assay in all cases: relative viability (nuclei count vs DMSO), 5 days (fraction); higher = more cells survive
# [1] = compound: O=c1[nH]cc(F)c(=O)[nH]1 [5-Fluorouracil] + CC(=O)c1c(C)c2cnc(Nc3ccc(N4CCNCC4)cn3)nc2n(C2CCCC2)c1=O [Palbociclib] (partner 0.5 µM)
# Procedure, shortened: (§1)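 Relative viability is defined as nuclei in treated wells over nuclei in vehicle wells. Duplicate plates were run and medians reported. Lung cancer cell lines in 1536-well plates were dosed by pin tool one day after seeding, with one drug or with a fixed anchor-drug dose plus five library-drug doses (not always all listed) in √10 steps, and nuclei were counted after 5 days.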
# [2] = compound: CN[C@@H]1C[C@H]2O[C@@](C)([C@@H]1OC)n1c3ccccc3c3c4c(c5c6ccccc6n2c5c31)C(=O)NC4 [Staurosporine] + Nc1ncn([C@H]2C[C@H](O)[C@@H](CO)O2)c(=O)n1 [Decitabine] (partner 2 µM)
# Procedure, shortened: as §1
# [3] = compound: O=c1[nH]cc(F)c(=O)[nH]1 [5-Fluorouracil] + Nc1ncn([C@H]2C[C@H](O)[C@@H](CO)O2)c(=O)n1 [Decitabine] (partner 2 µM)
# Procedure, shortened: as §1
# [4] = compound: CN[C@@H]1C[C@H]2O[C@@](C)([C@@H]1OC)n1c3ccccc3c3c4c(c5c6ccccc6n2c5c31)C(=O)NC4 [Staurosporine] + CCNC(=O)c1noc(-c2cc(C(C)C)c(O)cc2O)c1-c1ccc(CN2CCOCC2)cc1 [Luminespib] (partner 0.01 µM)
# Procedure, shortened: as §1
# Sulindac + Palbociclib = compound: CC1=C(CC(=O)O)c2cc(F)ccc2/C1=C\c1ccc([S+](C)[O-])cc1 [Sulindac] + CC(=O)c1c(C)c2cnc(Nc3ccc(N4CCNCC4)cn3)nc2n(C2CCCC2)c1=O [Palbociclib] (partner 0.5 µM)
# Procedure, shortened: as §1
cell line,measurement,setting,value
UMC-11,relative viability,[1]; first compound 0.02 µM,0.344
same,relative viability,[1]; first compound 0.2 µM,0.364
same,relative viability,[1]; first compound 0.6325 µM,0.309
same,relative viability,[2]; first compound 0.005 µM,0.76
same,relative viability,[2]; first compound 0.05 µM,0.192
same,relative viability,[2]; first compound 0.1581 µM,0.153
same,relative viability,[2]; first compound 0.5 µM,0.371
same,relative viability,[3]; first compound 0.02 µM,0.593
same,relative viability,[3]; first compound 0.2 µM,0.565
same,relative viability,[3]; first compound 0.6325 µM,0.497
same,relative viability,[4]; first compound 0.005 µM,0.894
same,relative viability,[4]; first compound 0.01581 µM,0.487
same,relative viability,[4]; first compound 0.05 µM,0.223
same,relative viability,[4]; first compound 0.1581 µM,0.135
same,relative viability,[4]; first compound 0.5 µM,0.0992
same,relative viability,Sulindac + Palbociclib; first compound 0.08 µM,0.304
same,relative viability,Sulindac + Palbociclib; first compound 0.253 µM,0.333
same,relative viability,Sulindac + Palbociclib; first compound 0.8 µM,0.318
same,relative viability,Sulindac + Palbociclib; first compound 2.53 µM,0.328
same,relative viability,Sulindac + Palbociclib; first compound 8 µM,0.364
